{
  "source": "patent US20190328721A1",
  "about": "“METHOD OF ACTIVATING DENDRITIC CELLS” (KOREA INSTITUTE OF SCIENCE AND TECHNOLOGY, priority 2018, published 2019)",
  "key": {"[1]": {"system": "CT26.CL25 colon cancer cells expressing mCherry", "assay": "Phagocytosis of mCherry-expressing cancer cells in the tumor model", "assay_type": "in vivo, mice", "conditions": "conditions of Example 2-3", "description": "In order to confirm whether or not the ROCK inhibitor Y27632 induces cancer cell phagocytosis in a tumor model, CT26.CL25 colon cancer cells expressing mCherry were prepared and used to create a tumor model by injecting tumor cells into mice, and it was analyzed whether phagocytosis of macrophages and dendritic cells against cancer cells expressing mCherry was increased under the same conditions as in Example 2-3."}, "IFN-γ": {"system": "IFN-γ", "assay": "IFN-γ ELISA of draining lymph node cells given β-gal peptide", "assay_type": "in vivo, mice", "description": "After draining lymph node was isolated from the tumor model animals, 5 μg/ ? of β-gal peptide (TPHPARIGL, SEQ ID NO: 1, including the naturally processed H-2 Ld limited epitope comprising amino acid residue 876 to 884 of β-galactosidase) which simulates β-gal peptide, a model antigen present in CT26.CL25 cells, or PBS were administered and the expression of IFN-γ was measured by IFN-γ ELISA kit (R&D Systems, Inc., USA)."}, "[2]": {"system": "bone marrow-derived dendritic cells (BMDCs)", "assay": "BMDC maturation markers CD40 and CD86 in vitro", "assay_type": "cell-based, mice", "conditions": "30 μM, 1 hour", "description": "In addition, the present inventors used pretreatment with 30 μM of Y27632 for 1 hour of bone marrow-derived dendritic cells (BMDCs) stained with cell marker CellTracker CMFDA (Thermo Fisher Scientific, Inc., USA) and then removed floating tumor cells by withdrawing removing the supernatant. Twenty hours later, the expression of CD40 and CD86 was analyzed by flow cytometry.\nThe present inventors then investigated whether dendritic cell maturation was promoted by the combination treatment of doxorubicin and Y27632. Specifically, 30 μM of Y27632 was used to pretreat bone marrow-derived dendritic cells (BMDC) stained with CellTracker CMFDA (Thermo Fisher Scientific, USA) for 1 hour, and then doxorubicin-treated CT26.CL25 was co-cultured for 4 hours, and floating cancer cells were removed by withdrawing supernatant. The expression level of CD40 and CD86, which are dendritic cell maturation markers, was analyzed by flow cytometry after 20 hours."}, "B16F10-Ova": {"system": "B16F10-Ova", "assay": "B16F10-Ova tumor model, Y27632 combined with a chemotherapeutic", "assay_type": "in vivo, mice", "conditions": "doxorubicin 5 mg/kg, Y27632 10 mg/kg", "description": "Specifically, tumor suppression was examined by administering 5 mg/kg of doxorubicin and 10 mg/kg of Y27632 alone or in combination to B16F10-Ova-bearing tumor model mice prepared as in Example 2-1. Doxorubicin was administered three times at intervals of 3 days from the 8th day after the injection of cancer cells, and Y27632 was administered at a dose of 10 mg/kg continuously for two consecutive days via intravenous injection followed by a day of rest as a cycle, followed by 3 cycles of 3-day intervals (FIG. 18A). The mice were sacrificed on the 20th day after the injection of cancer cells, the tumor tissue was excised, and ex vivo images were taken and the tumor tissues were weighed. Before the sacrifice of the mice, the tumor volumes over time were calculated as described above using calipers at intervals of 3 days from the 8th day after the injection of the cancer cells.\nIn order to confirm whether CD8^+ T cells infiltrates into tumor tissues, tumor tissues excised from an experimental animal were sectioned and subjected to fluorescence immunohistochemistry using anti-CD8 antibodies.\nFirst, to determine the cisplatin therapeutic concentration, a B16F10-Ova tumor model was constructed in a nude mouse lacking T cell immunity and then an experiment was conducted to confirm the concentration of cisplatin having an anticancer effect similar to that of doxorubicin at 5 mg/kg. […] Thus, in order to evaluate the therapeutic effect of cisplatin and the ROCK inhibitor Y27632 in the B16F10-Ova-bearing tumor model, 3 mg/kg of cisplatin was administered according to the administration schedule shown in FIG. 18A."}},
  "data": [
    {"smiles": "C[C@@H](N)[C@H]1CC[C@H](C(=O)Nc2ccncc2)CC1", "note": "[Y27632]", "values": [
      {"measurement": "phagocytosis of tumor dendritic cells against cancer cells expressing mCherry", "setting": "[1]", "value": "increased about two-fold"},
      {"measurement": "phagocytosis of tumor macrophages against cancer cells expressing mCherry", "setting": "[1]", "value": "increased about two-fold"},
      {"measurement": "IFN-γ level in draining lymph node", "setting": "IFN-γ; PBS liposome-treated group", "value": "increased"},
      {"measurement": "INF-γ expression in CD8-negative cells of draining lymph node", "setting": "IFN-γ; mouse, in vivo", "value": "no difference in INF-γ expression"},
      {"measurement": "amount of IFN-γ in CD8-positive cells of draining lymph node", "setting": "IFN-γ; mouse, in vivo", "value": "increased"},
      {"measurement": "DC maturation (CD40 and CD86 expression) of BMDCs", "setting": "[2]; co-cultivation with CT26.CL25, analysed twenty hours later", "value": "did not increase"},
      {"measurement": "dendritic cell maturation (CD40 and CD86) with doxorubicin-treated CT26.CL25", "setting": "[2]; co-culture 4 hours, analysed after 20 hours", "value": "increased"},
      {"measurement": "complete regression of the tumor", "setting": "B16F10-Ova", "value": "not observed"},
      {"measurement": "infiltration of CD8+ T cells into tumor tissues", "setting": "B16F10-Ova", "value": "slight infiltration"}
    ]}
  ]
}
